Values after ≈ are worked out from the molar mass of the structure shown. Values joined by “and” are separate entries in the source; they are usually repeats but may differ in a detail not shown here. Identical values can stand only once. Like-named read-outs stand apart in the source and are kept apart here.
Legend:
A549 cells = assay: MTT cytotoxicity test on A549 cells; format: cell-based; settings: Homo sapiens
Description: (§1) Therefore, compounds showing the highest cytotoxicity (8, 9, 18, 22, 24–27) were further tested on normal human dermal fibroblasts (HDF), A549, Caco-2, and HeLa cells to compare their activity after 24 h and 72 h culture (Figure 5 and Figure 6).
(§2) 2-Acetylbenzofuran, 2-acetylbenzothiophene, 2-acetylthiophene, 2-acetylthiazole, cyclohexanone and acetophenone derivatives were used for in vitro cytotoxicity assays with cervical adenocarcinoma (HeLa), human dermal fibroblasts (HDF), lung epithelial carcinoma (A549), and intestinal epithelial carcinoma (Caco-2) cell lines. A549, Caco-2, and HeLa cells were obtained from Sigma-Aldrich (Germany), and HDF from Biokom (Poland). All cell lines were cultured according to the manufacturer’s protocol under sterile conditions in the presence of 4.9% CO2 at 37 °C. A549 cells were grown in F-12 medium containing 10% fetal bovine serum (FBS) and 1% penicillin/streptomycin. HDF cells were grown in DMEM (low glucose, with 2 mM glutamine) medium containing 10% fetal bovine serum (FBS) and 1% penicillin/streptomycin. Caco-2 cells were grown in EMEM medium containing 10% fetal bovine serum (FBS), 1% non-essential amino acids (NEAA) and 1% penicillin/streptomycin. HeLa cells were grown in DMEM (low glucose, with 2 mM glutamine) medium containing 10% fetal bovine serum (FBS) and 1% gentamycin. After thawing, cells were cultured until they reached sub-confluent state. The cells were then detached using 0.25% trypsin solution and seeded into 24-well or 96-well plates (3 × 10^3 cells per well) for further experiments. After 24 h growth, the tested compounds were added to the cell cultures in concentrations of 1, 10, 50, 100 and 250 μg mL^−1, respectively, and incubated for the next 24 h or 72 h. The MTT test, based on the ability to reduce 3-(4,5-dimethylthiazol 2-yl)-2,5-diphenyltetrazolium bromide (MTT) by mitochondrial dehydrogenases, was performed in triplicate to assess cell metabolic activity and viability. The plates were then read spectrophotometrically at a wavelength of 570 nm. The dose-dependence curves were charted directly on x-/y-axes, with the drug dosages on the x-axis and the cell viability (percentage of viable cells) on the y-axis.

HeLa cells [1] = assay: LDH activity test (cell-membrane damage), HeLa cells; format: cell-based; settings: exposure at EC50 concentration
From the text: (§3) Summing up, only a few of the 27 tested derivatives could be promising as potential anti-cancer agents. Two of them—compound 22 and 27—would be a good starting point for future research. Therefore, we sought to compare their ability to induce necrotic cell death. Since necrotic cell death relies on the disruption of cell membrane, it results in the extracellular release of cytoplasmic enzymes such as lactate dehydrogenase (LDH). Thus, we compared LDH activity in the extracellular environment (culture media).
(§4) Additionally, the lactate dehydrogenase (LDH) activity test reflecting cell-membrane damage was performed for cells exposed to selected tested compounds. LDH activity was determined in the culture medium by measuring the decrease in NADH (nicotinamide adenine dinucleotide, reduced disodium salt). The decrease in the amount of NADH was directly correlated to the increase in the number of damaged cells. To measure LDH activity, the culture medium was collected from the wells with cells exposed to concentrations equal to the EC50 values of tested compounds after short- (24 h), and long-time (72 h) exposure. The LDH activity test was performed as follows: 25 μL of NADH (2.5 mg/mL) and 25 μL of sodium pyruvate (2.5 mg/mL) were added to 150 μL of the collected culture medium. Absorbance at 340 nm was spectrophotometrically measured. […]

[2] = system: human dermal fibroblasts (HDF); assay: MTT cytotoxicity test on HDF cells; format: cell-based; settings: Homo sapiens, Fibroblast, HDF, MTT
Description: as §1, §2

HeLa cells [3] = assay: MTT cytotoxicity test on HeLa cells; format: cell-based, human
Description: Cytotoxic properties of all compounds were determined by 3-(4,5-dimethylthiazol-2-yl)-2,5-diphenyltetrazolium bromide (MTT) test reflecting cell viability. Cytotoxicity screening of all 27 compounds—2-acetylbenzofuran oxime (6) and its oxime ethers (1–5), as well as: 2-acetylthiophene (7–17), cyclohexanone (18–20), acetophenone (21–23), thiazole (24–25), benzothiazole (26–27) oxime ethers—was performed in vitro on human cervical adenocarcinoma (HeLa) cells as the representatives of cancerous cells.
as §2

Caco-2 cells = assay: MTT cytotoxicity test on Caco-2 cells; format: cell-based, human
Description: as §1, §2

[4] = MTT cytotoxicity test on HDF cells; format: cell-based, human; settings: human, human dermal fibroblasts (HDF); 50 μg/mL, 24 h exposure
Description: as §1, §2

cells = assay: LDH activity test (cell-membrane damage), cell lines not given; format: cell-based, human; settings: exposure at EC50 concentration, 24 h and 72 h; positive control 1% Triton X-100 = 100%
From the text: as §3, §4

[5] = A549, 24 h, MTT, read-out: EC50 Value A549 24 h
[6] = A549, 72 h, MTT, read-out: EC50 Value A549 72 h
[7] = 24 h, read-out: EC50 Value HDF 24 h
[8] = 72 h, read-out: EC50 Value HDF 72 h
[9] = Homo sapiens, HeLa, 24 h, HeLa, 24 h culture, MTT, read-out: EC50 for HeLa Cells
[10] = Homo sapiens, HeLa, 72 h, HeLa, 72 h, MTT, read-out: EC50 Value HeLa 72 h
[11] = Homo sapiens, Caco-2, 24 h, MTT, read-out: EC50 Value Caco-2 24 h
[12] = Homo sapiens, Caco-2, 72 h, MTT, read-out: EC50 Value Caco-2 72 h

COc1ccc(CO/N=C(\C)c2cc3ccccc3s2)cc1 [Compound 27, (E)-1-(benzothiophene-2-yl)ethanone O-4-methoxybenzyl oxime]
EC50 (A549 cells; [5]): > 250 µg/mL and > 800 µM | EC50 (A549 cells; [6]): 143 µg/mL and 460 µM | membrane damage and release of LDH (HeLa cells [1]): extreme membrane damage and release of LDH | EC50 [2, 7]: 150 µg/mL and 480 µM | EC50 [2, 8]: 140 µg/mL and 450 µM | EC50 Value HeLa 72 h (HeLa cells [3]; HeLa, 72 h, MTT): 27.9 µg/mL (≈ 89.6 µM) | EC50 (HeLa cells [3]; [9]): 93.8 µg/mL and 300 µM | EC50 (HeLa cells [3]; [10]): 28 µg/mL and 90 µM | EC50 Value Caco-2 72 h (Caco-2 cells; Caco-2, 72 h, MTT): 116.47 µg/mL (≈ 374 µM) | EC50 (Caco-2 cells; [11]): 122 µg/mL and 390 µM | EC50 (Caco-2 cells; [12]): 116 µg/mL and 370 µM

C/C(=N\OCCN1CCOCC1)c1ccccc1 [Compound 22, (E)-acetophenone O-2-morpholinoethyl oxime]
EC50 (A549 cells; [5]): 10.2 µg/mL and 40 µM | EC50 (A549 cells; [6]): 30 µM | EC50 (A549 cells; A549, 72 h, read-out: EC50 A549): ~30 µM | viability at 50 µg/mL (A549 cells; A549, 50 μg/mL, 24 h exposure): ~20% | viability at 24 h, 50 μg/mL [4]: ~20% | EC50 [2, 7]: 27.3 µg/mL and 110 µM | EC50 [2, 8]: 8.04 µg/mL and 30 µM | viability of HeLa cells (of control) (HeLa cells [3]; 100–250 μg/mL, MTT): below 20% | EC50 (HeLa cells [3]; [9]): 23.1 µg/mL and 90 µM | EC50 (HeLa cells [3]; [10]): 30 µM | EC50 (HeLa cells [3]; Homo sapiens, HeLa, 72 h, HeLa, 72 h, read-out: EC50 HeLa): ~30 µM | viability at 50 µg/mL (HeLa cells [3]; Homo sapiens, HeLa, 50 μg/mL, 24 h exposure): ~20% | increase in LDH activity outside the cells (of positive control) (cells): ≤ 20% | EC50 (Caco-2 cells; [11]): 9.45 µg/mL and 40 µM | EC50 (Caco-2 cells; [12]): 30 µM | EC50 (Caco-2 cells; Homo sapiens, Caco-2, 72 h, read-out: EC50 Caco-2): ~30 µM | viability at 50 µg/mL (Caco-2 cells; Homo sapiens, Caco-2, 50 μg/mL, 24 h exposure): ~20%

Source: PMC8878717, “The Oxime Ethers with Heterocyclic, Alicyclic and Aromatic Moiety as Potential Anti-Cancer Agents” (Molecules, 2022)
